Measurements: patent US20030157712A1, “Methods for determining cell responses through EphB receptors” (priority 1997, published 2003)

Key:
[1] = test system: human renal microvascular endothelial cells; assay: Solid phase cell attachment assay (HRMEC); format: cell-based
Experimental: Solid phase cell attachment assays. Forty-eight-well plates (Falcon) were coated with a layer of nitrocellulose (Schleicher & Schuell) and allowed to air dry as described (47). Coated wells were incubated overnight at 4° C. with PBS containing matrix proteins at the indicated concentrations alone (no addition, NA) or in combination with dimeric EphrinB1/Fc. Two hours prior to assay, wells were washed twice then blocked at 37° C. with 1% BSA. Serum starved cells were harvested in 2 mM EDTA in PBS (HEK293) or recovered by trypsinization (HRMEC), washed twice in serum free medium containing 1% BSA, then plated at a density of 0.7-1×10^5 cells per well. After incubation at 37° C. for 1 hour (or as specified), unattached cells were dislodged by 5 brisk slaps of the plate on a horizontal surface. Wells were gently washed with PBS until cells were […] to albumin-coated wells. Adherent cells were fixed with 2% glutaraldehyde, stained with 0.5% crystal violet (in EtOH), and quantified by OD reading at 570 nm. In experiments using competitive peptides or blocking antibodies, cells were preincubated with the indicated peptides (100 μM) or antibodies (10 μg/ml) for 15 min at RT before plating. Results representative of three independent experiments are given as OD values and represent the mean of duplicate or triplicate wells±SEM. […]

[2] = test system: HRMEC; assay: Endothelial assembly into capillary-like structures (HRMEC); format: cell-based, human; details: HRMEC on Matrigel, two dimensional in vitro assay, 8 h
Experimental: Endothelial assembly into capillary-like structures. Twelve well plates (Falcon) were coated with thin layers of Matrigel. HRMEC were plated at a density of 4×10^4 cells/well in DME containing 1% fetal bovine serum. Indicated agonists, control peptides, alone, or in combination with the EphB1/Fc antagonist (1000 ng ml^−1) (FIG. 5) were added at the time of plating. Cells were incubated at 37° C. for 8 h and photographed using phase microscopy (magnification 100×) (Diaphot-TMD, Nikon).

fibrinogen [reference compound]
threshold surface density of adsorbed matrix protein required to promote attachment ([1]; nitrocellulose surface): approximately 1 ug/cm^2

GRGDSPK [RGD peptide, reference compound]
support of the ephrin-B1 induced increase in endothelial attachment ([1]; peptide-coated 48-well plates): sufficient

CCCCCCCCCCCCCC(=O)O[C@@H]1[C@@H](C)[C@@]2(O)[C@@H](C=C(CO)C[C@]3(O)C(=O)C(C)=C[C@@H]23)[C@@H]2C(C)(C)[C@]12OC(C)=O [phorbol myristate acetate, reference compound]
endothelial capillary-like assembly [2]: stimulated
